Measurements published in patent publication US20220062429A1, “METHOD FOR ENHANCING EXPRESSION OF MOISTURIZING-RELATED SUBSTANCE IN EPIDERMIS” (J-Network, Inc., priority 2020, published 2022).

Legend:
Assay type in all cases: cell-based
profilaggrin mRNA = experiment: Amplification test of profilaggrin mRNA (quantitative real-time PCR) in normal human epidermal cells; conditions: for expression of profilaggrin mRNA, relative to N.C. = 100%: corrected with cyclophilin
Experimental: After samples were prepared using human epidermal cells, RNA of the cells was extracted and the quantity of mRNA of profilaggrin was determined.
Normal human epidermal cells (hereinafter, “epidermal cells”) (from Kurabo Industries Ltd.) were seeded at a cell density of 2.0×10^4 cells/well in a 96-well culture plate using a growth medium (KG2 medium: from Kurabo Industries Ltd.). After the cells were cultured at 37° C. under 5% carbon dioxide for 24 hours, the media were replaced with media (KB2 media not containing bovine pituitary extract: from Kurabo Industries Ltd.) to which Samples 11 to 18 described below were respectively added. Each of Samples 11, 14, and 17 as controls is a medium only. Samples 12, 13, 15, 16, and 18 are different from one another in the type and/or concentration (mass % with respect to the medium) of a diacylglycerol PEG adduct. • Sample 11: Control (N.C.) • Sample 12: GDS12 (0.100%) • Sample 13: GDS12 (0.050%) • Sample 14: Control (N.C.) • Sample 15: GDM12 (0.001%) • Sample 16: GDM12 (0.004%) • Sample 17: Control (N.C.) • Sample 18: GDS23 (0.002%)
Thereafter, the epidermal cells were cultured at 37° C. under 5% carbon dioxide for 3 hours. Subsequently, RNA was extracted from the cells.
(§1) Reverse transcription of the extracted RNA was performed to generate cDNA, and the quantity of profilaggrin mRNA was determined by quantitative real-time PCR expression analysis. Cyclophilin was used as an internal standard. In the analysis, the expression level of profilaggrin was corrected with a value of the expression level of cyclophilin as the internal standard in the same sample, and thereafter the correction value for each sample was calculated assuming the correction value for the control N.C. as 100%.

filaggrin [1] = experiment: Test 2 on promotion of filaggrin production: dot blotting in normal human epidermal cells; conditions: 72 hours
Experimental: After samples were prepared using human epidermal cells, production of filaggrin was observed by dot blotting and the quantity of filaggrin was determined.
Normal human epidermal cells (hereinafter, “epidermal cells”) (from Kurabo Industries Ltd.) were seeded at a cell density of 1.0×10^4 cells/well in a 96-well culture plate using a growth medium (KG2 medium: from Kurabo Industries Ltd.). After the cells were cultured at 37° C. under 5% carbon dioxide for 24 hours, the medium was replaced with media (KB2 media not containing bovine pituitary extract: from Kurabo Industries Ltd.) to which Samples 5 to 10 described below were respectively added. Each of Samples 5 and 8 as controls is a medium only. Samples 6, 7, 9, and 10 are different from one another in the type and/or concentration (mass % with respect to the medium) of a diacylglycerol PEG adduct to be added to the medium. • Sample 5: Control (N.C.) • Sample 6: GDM12 (0.0005%) • Sample 7: GDM12 (0.0010%) • Sample 8: Control (N.C.) • Sample 9: GDS23 (0.0025%) • Sample 10: GDS23 (0.0050%)
Thereafter, for each sample, the epidermal cells were cultured at 37° C. under 5% carbon dioxide for 72 hours. Subsequently, the epidermal cells were cleaned with PBS(−), 0.5% Triton X-100 (containing 2 mM PMSF) was then added, and thereafter the cells were disrupted by sonication.
A fixed amount of the suspension of disrupted cells was blotted on a nitrocellulose membrane and dried overnight. The transfer membrane after drying was immersed in a PBS solution of 1% BSA and blocked at room temperature for 1 hour. Thereafter, the membrane was cleaned with PBS(−), and an anti-human filaggrin antibody (Anti-Filaggrin: from ARGENE SA) was added onto the transfer membrane at a dilution concentration of 1:4000. The mixture was made to react at room temperature for 1 hour, and then the transfer membrane was cleaned with a PBS solution.
Thereafter, an immunohistochemical staining reagent (Histofine Simple Stain MAX-PO(M): from Nichirei Biosciences Inc.) was added onto the transfer membrane at a dilution concentration of 1:100 and was made to react at room temperature for 1 hour. […]
The brightness of each spot in the spot image obtained by dot blotting was quantitively determined using an analyzer (CS Analyzer Version 2.0: from ATTO Corporation).
FIG. 2a illustrates respective spot images for Samples 5, 6 and 7 related to GDM12, and FIG. 2b illustrates the production quantity of filaggrin for each sample determined based on FIG. 2a. The vertical axis of the graph represents the relative quantity when the quantity for the control N.C. is assumed as 100% (the same representation is also applied to graphs in drawings that will be described later).

caspase-14 mRNA = experiment: Caspase-14 mRNA expression (quantitative real-time PCR) in normal human epidermal cells; conditions: for expression of caspase-14 mRNA, relative to N.C. = 100% / expression of caspase-14 mRNA versus N.C.: 3 hours; for expression of caspase-14 mRNA, relative to N.C. = 100%: corrected with cyclophilin
Experimental: After samples were prepared using human epidermal cells, RNA of the cells was extracted and the quantity of caspase-14 mRNA was determined.
Normal human epidermal cells (hereinafter, “epidermal cells”) (from Kurabo Industries Ltd.) were seeded at a cell density of 2.0×10^4 cells/well in a 96-well culture plate using a growth medium (KG2 medium: from Kurabo Industries Ltd.). After the cells were cultured at 37° C. under 5% carbon dioxide for 24 hours, the media were replaced with media (KB2 media not containing bovine pituitary extract: from Kurabo Industries Ltd.) to which Samples 19 to 26 described below were respectively added. Each of Samples 19 and 24 as controls is a medium only. Samples 20, 21, 22, 23, and 25 are different from one another in the type and/or concentration (mass % with respect to the medium) of a diacylglycerol PEG adduct contained in the medium. • Sample 19: Control (N.C.) • Sample 20: GDM12 (0.001%) • Sample 21: GDM12 (0.004%) • Sample 22: GDM12 (0.020%) • Sample 23: GDM12 (0.100%) • Sample 24: Control (N.C.) • Sample 25: GDS23 (0.0004%)
Subsequently, the epidermal cells were cultured at 37° C. under 5% carbon dioxide for 3 hours. Subsequently, RNA was extracted from the cells.
as §1, with “of caspase-14” for “of profilaggrin”, “value of” for “value for”, “was calculated,” for “was calculated”, “control sample” for “control N.C.”

filaggrin [2] = experiment: Test 1 on promotion of filaggrin production: filaggrin immunostaining of human three-dimensional cultured epidermis model; conditions: 2%, 3.5% solutions in PBS(−) (Samples 2-4)
Experimental: After samples were prepared using a human epidermis model, production of filaggrin was observed by applying two staining methods, that is, an immunostaining method using an anti-filaggrin antibody and the method of Hematoxylin Eosin staining.
A human three-dimensional cultured epidermis model (hereinafter, “epidermis model”) (LabCyteEPI-MODEL24 6D: from Japan Tissue Engineering Co., Ltd.) was subjected to treatment in the following manner to prepare samples.
First, the epidermis model was incubated in an agar medium at room temperature for 24 hours. Thereafter, the epidermis model was cultured in a medium (an assay medium: from Japan Tissue Engineering Co., Ltd.) at 37° C. for 48 hours. […]
Thereafter, an anti-filaggrin antibody (from GeneTex, Inc.) was made to react with that section at 37° C. overnight, and an anti-mouse IgG Alexa Fluor (registered trademark) 488 antibody (from Cell Signaling Technology, Inc.) was further made to react at 37° C. for 2 hours. […] Then, green fluorescence and blue fluorescence were observed using a fluorescence microscope. The green fluorescence indicates the presence of filaggrin. The blue fluorescence is for confirming that there is no abnormality in cells of the epidermis model.

PEG-23 glycerol distearate [GDS23]
expression of profilaggrin mRNA, relative to N.C. = 100% (profilaggrin mRNA; 0.002% in medium (Sample 18), 3 hours): about 120% | production quantity of filaggrin, relative to N.C. = 100% (filaggrin [1]; 0.0025% in medium (Sample 9)): about 200% | production quantity of filaggrin, relative to N.C. = 100% (filaggrin [1]; 0.0050% in medium (Sample 10)): about 200% | expression of caspase-14 mRNA, relative to N.C. = 100% (caspase-14 mRNA; 0.0004% in medium (Sample 25)): about 150%

PEG-12 glycerol dimyristate [GDM12]
concentration dependence of production quantity of filaggrin (filaggrin [2]): more as the concentration of the GDM12 solution is higher | production quantity of filaggrin in the stratum corneum (green fluorescence) versus N.C. (filaggrin [2]; 30 μL on stratum corneum, 18 hours, model recovered 6 days after application): more than that of the epidermis model of N.C. | increase of expression of profilaggrin mRNA versus N.C. (profilaggrin mRNA; 0.001% in medium (Sample 15), 3 hours): slight | expression of profilaggrin mRNA, relative to N.C. = 100% (profilaggrin mRNA; 0.004% in medium (Sample 16), 3 hours): about 150% | production quantity of filaggrin, relative to N.C. = 100% (filaggrin [1]; 0.0005% in medium (Sample 6)): ≥ 200% | production quantity of filaggrin, relative to N.C. = 100% (filaggrin [1]; 0.0010% in medium (Sample 7)): ≥ 200% | expression of caspase-14 mRNA versus N.C. (caspase-14 mRNA; 0.001% in medium (Sample 20)): increased | expression of caspase-14 mRNA versus N.C. (caspase-14 mRNA; 0.004% in medium (Sample 21)): increased | expression of caspase-14 mRNA, relative to N.C. = 100% (caspase-14 mRNA; 0.020% in medium (Sample 22)): about 200% | expression of caspase-14 mRNA, relative to N.C. = 100% (caspase-14 mRNA; 0.100% in medium (Sample 23)): about 400% | concentration dependence of increase of caspase-14 mRNA (caspase-14 mRNA; Samples 20-23 (0.001% to 0.100%)): the increase is larger as the concentration of GDM12 is higher

PEG-12 glycerol distearate [GDS12]
expression of profilaggrin mRNA, relative to N.C. = 100% (profilaggrin mRNA; 0.050% in medium (Sample 13), 3 hours): about 150% | expression of profilaggrin mRNA, relative to N.C. = 100% (profilaggrin mRNA; 0.100% in medium (Sample 12), 3 hours): about 150% | concentration dependence of increase of profilaggrin mRNA (profilaggrin mRNA; Samples 12 and 13 (0.100%, 0.050%)): the increase is larger as the concentration of GDS12 is higher
